These results are taken from patent US6306857A, “Methods for treating or preventing alzheimer's disease using substituted 1-aryl-3-piperazin-1'-yl propanones” (Molecular Geriatrics Corporation, priority 1999, dated 2001).

Assay [1] concerns TG3 immunoreactivity in OKA treated MSN1a cells. In words: inhibition of TG3 immunoreactivity in OKA treated MSN1a cells (ELISA). The assay is classed as cell-based, human. Conditions: MSN1a cell culture model, TG3. As for the experimental part:
Therefore, the therapeutic activity of the compounds of the invention was assessed by the ability of these agents to affect the production of abnormally phosphorylated epitopes pertinent to the production of PHFs of AD, utilizing a human neuroblastoma cell line (MSN1a) in the presence of the protein phosphatsse inhibitor, okadaic acid (OKA).
This assay can thus be used to determine whether a drug is capable of preventing or intervening in AD by attenuating the production of abnormally phosphorylated paired helical filament epitopes associated with AD. To determine whether a drug is capable of preventing or intervening in AD activity, the MSN1a cells containing tau and associated proteins are treated with OKA capable of greatly increasing immnunoreactivity of the MSN1a cells with AD specific monoclonal antibodies. Then, either prior to or concomitantly with OKA treatment, a compound of the present invention is added to the culture. If the compound prevents the induction of the AD epitopes in the MSN1a cells treated with OKA, then it is said to have anti-AD activity. If the AD-specific antibodies are highly reactive with the neuroblastoma cells following OKA treatment in the presence of compound, then the compound is said to be ineffectual against AD.
The MSN1a human neuroblastoma line was subcloned from a population of MSN cells obtained from the laboratory of Dr. Peter Davies (Albert Einstein College of Medicine, New York, N.Y.). Cells were grown and maintained in flasks in RPMI 1640 medium, supplemented with 15% fetal calf serum, 100 U/ml penicillin, 100 U/ml Streptomycin, 0.5 ug/ml fungizone under 7.5% CO2 at 37° C.
Stock solutions of drugs were prepared by dissolving the anhydrous powders to final concentrations of either 10 or 20 mM in 50% aqueous or 100% dimethyl sulfoxide (DMSO), respectively. […]
MSN cells grown in 225 cm^2 flasks are removed from the incubator, their medium decanted and replaced with 50 ml pre-warmed KRH. […] The supernatants are discarded and the cell pellets are resuspended, the cells counted and diluted to a density of 2×10^4 cells/50 ml. […]
Background: An ELISA detects its analyte on a solid surface through an enzyme-linked reagent.

In assay [2] the test system is PHF epitope levels in frontal (Brodman Area 10) and temporal (Brodman Area 38) brain tissue. In words: ALZ-EIA of PHF (ADAP) levels in post-mortem brain tissue of patients chronically treated with chlorpromazine. The conditions noted are these: chronic treatment; frontal and temporal tissue at autopsy; vs normal controls and AD (FIGS. 4A, 4B). The assay is classed as in vivo, human. As to the method:
FIG. 4A is a chart showing relative ADAP concentrations in Brodman Area 10 in Alzheimer's Disease patients, normal controls and patients treated with chlorpromazine (Rx).
FIG. 4B is a chart showing relative ADAP concentrations in Brodman Area 38 in Alzheimer's Disease patients, normal controls and patients treated with chlorpromazine (Rx).
Frontal and cortical brain tissue specimens obtained at autopsy from patients chronically treated with chlorpromazine were analyzed using the ALZ-EIA method previously described (Ghanbari, H A, et al, JAMA, 263, 2907, 1990). The results are shown in FIGS. 4A and 4B frontal (Broadman area 10) and temporal (Broadman area 38) regions, respectively. The brain tissue (post-mortem) from approximately the same number of (age matched) normal controls and Alzheimer's Disease patients were also analyzed and are presented in these figures as negative and positive controls (for normal and AD, respectively).

The test system of assay [3] is PHF epitopes in MSN1a cells (PHF-1 immunoreactivity). The assay is described as follows: PHF-1 immunoreactivity (western blot) in okadaic acid treated MSN1a cells. Type of assay: cell-based, human. As to the method: FIG. 3 is a western blot showing PHF-1 immunoreactivity in lysates from control and chlorpromazine treated MSN cells treated with okadaic acid.
These compounds are effective at micromolar concentrations, with increased potency being evident when cells are treated prior to the addition of okadaic acid. The effective concentrations appear to be in the range at which these drugs are present in the brain following chronic treatment of psychiatric patients (Svendsen, C N, Psychopharmacology, 90, 316-321, 1986).
To determine the effect of chlorpromazine on the paired helical filament epitopes associated with AD, MSN1a cells expressing paired helical filament epitopes were incubated with […] chlorpromazine (CPZ) or a 0.2% DMSO vehicle control for 2 hours at 37° C. The cells were isolated by centrifugation, boiled for 10 minutes and […] protein from the resulting heat stable supernatants were loaded per lane on an SDS-PAGE gel. The gel was electrophoretically transferred to nitrocellulose membrane and then immunostained with PHF-1. […] The use of the MSN1a cell culture model for screening of novel compounds for therapeutic activity in AD is, therefore, quite warranted.
For orientation: A western blot detects proteins with antibodies after separation by electrophoresis.

In assay [4] the test system is PHF-1 and TG3 epitopes in MSN1a cells. In words: generation of Alzheimer epitopes (PHF-1 and TG3) in MSN1a cells by okadaic acid. The assay is classed as cell-based, human. As to the method: Conditions were established which led to hyperphosphorylation of the proteins known to be involved in PHF formation. Using monoclonal antibodies PHF-1 and TG3 generated to human PHF preparations, the effects of a variety of manipulations of the phosphorylation state of these proteins were tested. These tests required that most of the abnormal epitopes recognized by these monoclonal antibodies in the human Alzheimer brain should be generated in the MSN1a cells. […] These epitopes are either absent or present at a very low level in untreated MSN1a cells.
Shown in FIG. 2A are bar graphs (percent of AD) of the ELISA immunoreactivity of brain preparations (AD or normal) to either PHF-1 or TG3. Shown in FIG. 2B are bar graphs (percent of MSN+) of the ELISA immunoreactivity of MSN1a cell preparations (minus or plus okadaic acid) to either PHF-1 or TG3. The MSN1a cell preparations plus vs minus okadaic acid closely parallel the AD vs nomal brain preparations. […] The cell culture system according to the invention in which epitopes characteristic of PHF can be readily generated and subsequently recognized by the specific Alzheimer brain specific antibodies provides an assay suitable for screening compounds for their ability to block the production of these phosphorylated epitopes.

Regarding `CN(C)CCCN1c2ccccc2Sc2ccc(Cl)cc21` [Chlorpromazine, chlorpromazine], in assay [1], the “inhibition of the production of aberrantly phosphorylated epitopes” value is recorded as “effective in inhibiting the production of these aberrant phosphorylated epitopes”. Further, in assay [2], the “PHF epitope levels in brain of chlorpromazine treated patients” value is on record as “low PHF epitope levels similar to normal controls”. Further, the “production of paired helical filament epitopes by the MSN1a cells” value in assay [3] (100 mM chlorpromazine, 2 hours at 37° C., PHF-1 immunostain) is given as “greatly decreased the production of paired helical filament epitopes”. Moreover, the “inhibition of the expression of PHF epitopes” value in assay [3] (MSN1a cells treated with okadaic acid, Alzheimer's Disease specific antibodies (cf. FIG. 3)) is listed as “markedly inhibit the expression of PHF epitopes”.
Regarding `C=C1[C@@H](O)[C@@H]2O[C@]3(CC[C@H](/C=C/[C@@H](C)[C@@H]4CC(C)=C[C@@]5(O[C@H](C[C@@](C)(O)C(=O)O)CC[C@H]5O)O4)O3)CC[C@H]2O[C@@H]1[C@@H](O)C[C@H](C)[C@H]1O[C@@]2(CCCCO2)CC[C@H]1C` [okadaic acid], in assay [4], the “generation of the epitopes associated with Alzheimer brain specific monoclonal antibodies” value was “found to generate the epitopes”.
